Values quoted from earlier work, collected in US5122376A, “Calcitonin gene related peptide” (ISF Societa per Azioni, priority 1989, dated 1992).

Details: compared with sodium caprate

CC1(C)[C@@H](O)CC[C@]2(C)[C@H]3C(=O)C=C4[C@@H]5C[C@@](C)(C(=O)[O-])CC[C@]5(C)CC[C@@]4(C)[C@]3(C)CC[C@@H]12.[Na+] [sodium glycyrrhetinate]
absorption-enhancing agent for insulin (nasal absorption): weaker than sodium caprate
